Measured values reported in article PMC7394005, “Assessing the Selectivity of FXR, LXRs, CAR, and RORγ Pharmaceutical Ligands With Reporter Cell Lines” (Frontiers in Pharmacology, 2020).
Where two headings read alike, the source gives them in different places.

What was measured:
Format in all cases: cell-based
[1] = molecular target: T1, human FXR (Homo sapiens, UniProt Q96RI1); experiment: HG5LN GAL4-FXR reporter cell line, agonist mode (luciferase transactivation); conditions: NE = No effect; for EC50: HG5LN GAL4-FXR cells, tested alone
T1 construct: FXR (R193-Q486); expressed in transfected cells; host or cells: HG5LN (HeLa cells carrying the (GAL4RE)5-βGlob-Luc-SVNeo reporter)
T1 sequence (Q96RI1 193-486): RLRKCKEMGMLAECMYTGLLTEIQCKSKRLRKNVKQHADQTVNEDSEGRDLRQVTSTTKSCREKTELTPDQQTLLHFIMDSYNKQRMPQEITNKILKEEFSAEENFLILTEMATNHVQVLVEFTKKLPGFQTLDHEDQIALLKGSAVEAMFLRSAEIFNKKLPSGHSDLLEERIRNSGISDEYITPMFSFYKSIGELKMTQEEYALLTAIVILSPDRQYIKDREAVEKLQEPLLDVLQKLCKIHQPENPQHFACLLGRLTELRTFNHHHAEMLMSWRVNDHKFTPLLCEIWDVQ
Source text: (§1) To construct GAL4-NR chimeras, individual LBDs of human FXR (R193-Q486), LXRα (A187-E447), LXRβ (G199-E461), CAR (M76-S348), and RORγ (S97-K518) were amplified by PCR with primers containing XhoI and SacI restriction sites (FXR), XhoI and BamHI (LXRs, CAR, RORγ) and inserted in pSG5-GAL4(DBD)-puromycin plasmid. To construct GAL4-CAR (+ APYLT) (M76-S353), the five amino acids APYLT were inserted by overlap extension PCR between amino acids P270 and D271 of CAR.
(§2) To characterize the specificity of chemicals for human FXR, LXRα, LXRβ, CAR and RORγ, we established in a similar manner HG5LN FXR, LXRα, LXRβ, CAR WT, CAR (APYLT) and RORγ reporter cell lines. […] These cells were stably transfected by pSG5-GAL4 (DBD)-NRs (LBD)-puromycin plasmid and selected in presence of 0.5 µg/ml puromycin. […] From each HG5LN NR cells, 5 to 10 clones were chosen for their ligand inducibility of luciferase expression. […] The most inducible clones were expanded and rechecked for inducibility and aliquots were frozen at different passages. One clone per receptor was maintained in culture and used for ligand screening. HG5LN cells were cultured in Dulbecco’s modified Eagle’s medium (DMEM): Nutrient Mixture F-12 (DMEM/F-12) containing phenol red and 1 g/l glucose and supplemented with 5% fetal bovine serum, 100 units/ml of penicillin, 100 µg/ml of streptomycin and 1 mg/ml geneticin, in 5% CO2 humidified atmosphere at 37°C. Stably transfected cell lines derived from HG5LN cells were cultured in the same culture medium supplemented with 0.5 µg/ml puromycin.
(§3) Individual reporter cell lines were seeded at a density of 40,000 cells per well in 96-well white opaque tissue culture plates (Greiner CellStar) in Dulbecco’s Modified Eagle Medium: Nutrient Mixture F-12 (DMEM/F-12) without phenol red and 1 g/l glucose and supplemented with 5% stripped fetal bovine serum, 100 units/ml of penicillin, 100 µg/ml of streptomycin (test medium). Chemicals to be tested were added 24h later, and cells were incubated at 37°C for 16h. Experiments were performed in quadruplicates. At the end of the incubation period, culture medium was replaced with test medium containing 0.3 mM luciferin solution. Luciferase activity was measured for 2s in intact living cells after 10 min stabilization using a Micro Beta Wallac luminometer (PerkinElmer). EC50 values were calculated using GraphPad Prism (GraphPad Software Inc).
(§4) Chemicals tested for agonism on FXR, LXRs, CAR (+ APYLT), PXR, and antagonism on CAR and RORγ were tested alone, without addition of any other ligand.
(§5) In the transactivation assay, each compound was tested at various concentrations in three independent experiments at least. For each experiment, tests were performed in quadruplicates for each concentration, and data are expressed by means values with standard deviations. Individual agonist dose–response curves, in the absence and presence of antagonist, were fitted using the sigmoid dose-response function of a graphics and statistics software program (GraphPad Prism, version 5.0). EC50 (effective concentration for half-maximal luciferase activity) and IC50 (half-maximal inhibitory concentration) values were calculated from equations used to fit the data in this graphic software. Transactivation data are presented as EC50 and IC50 values for each compound tested. To analyze significances, we compared individual compound treatments with controls using one-way analysis of variance (ANOVA) with the help of GraphPad Prism software.

[2] = molecular target: T2, human CAR (+ APYLT) (Homo sapiens, UniProt Q14994, INS270APYLT); experiment: HG5LN GAL4-CAR (+APYLT) reporter cell line, agonist mode; conditions: for EC50: HG5LN CAR + APYLT cells, tested alone, NE = No effect
T2 construct: CAR (M76-S348); expressed in transfected cells; host or cells: HG5LN (HeLa cells carrying the (GAL4RE)5-βGlob-Luc-SVNeo reporter)
T2 sequence (Q14994 47-324 isoform Q14994-6): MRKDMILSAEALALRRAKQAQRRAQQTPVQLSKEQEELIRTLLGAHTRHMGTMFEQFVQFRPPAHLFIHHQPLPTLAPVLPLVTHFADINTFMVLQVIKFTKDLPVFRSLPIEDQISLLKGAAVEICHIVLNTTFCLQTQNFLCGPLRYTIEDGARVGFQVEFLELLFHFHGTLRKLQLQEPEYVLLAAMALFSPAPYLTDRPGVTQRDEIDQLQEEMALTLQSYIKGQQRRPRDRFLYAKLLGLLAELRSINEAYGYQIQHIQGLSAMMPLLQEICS
Source text: as §1, §2, §3, §4, §5

[3] = molecular target: T3, human CAR WT (Homo sapiens, UniProt Q14994); experiment: HG5LN GAL4-CAR WT reporter cell line, inhibition of constitutive activity; conditions: for remaining activity at 10 µM: HG5LN, read-out: CAR WT % min act; for IC50: inhibition of constitutive activity
T3 construct: CAR (M76-S348); expressed in transfected cells; host or cells: HG5LN (HeLa cells carrying the (GAL4RE)5-βGlob-Luc-SVNeo reporter)
T3 sequence (Q14994 76-348 isoform Q14994-2): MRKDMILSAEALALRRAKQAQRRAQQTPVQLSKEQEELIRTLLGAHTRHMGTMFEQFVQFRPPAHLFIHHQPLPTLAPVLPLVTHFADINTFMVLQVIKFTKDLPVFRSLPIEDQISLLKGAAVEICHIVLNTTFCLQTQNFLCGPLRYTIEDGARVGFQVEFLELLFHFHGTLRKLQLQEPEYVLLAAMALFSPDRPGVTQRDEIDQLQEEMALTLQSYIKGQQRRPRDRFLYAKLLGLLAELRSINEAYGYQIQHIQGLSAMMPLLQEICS
Source text: as §1, §2, §3, §4, §5

[4] = molecular target: T4, human LXRβ (Homo sapiens, UniProt P55055); experiment: HG5LN GAL4-LXRβ reporter cell line, agonist mode; conditions: for LXRβ % max act: maximal luciferase activity at 10^-5 M (10^-6 M for * and 3 10^-6 M for ** compounds), 100% = 1 µM T0901317, DMSO 9 ± 2
T4 construct: LXRβ (G199-E461); expressed in transfected cells; host or cells: HG5LN (HeLa cells carrying the (GAL4RE)5-βGlob-Luc-SVNeo reporter)
T4 sequence (P55055 198-460 limits assumed): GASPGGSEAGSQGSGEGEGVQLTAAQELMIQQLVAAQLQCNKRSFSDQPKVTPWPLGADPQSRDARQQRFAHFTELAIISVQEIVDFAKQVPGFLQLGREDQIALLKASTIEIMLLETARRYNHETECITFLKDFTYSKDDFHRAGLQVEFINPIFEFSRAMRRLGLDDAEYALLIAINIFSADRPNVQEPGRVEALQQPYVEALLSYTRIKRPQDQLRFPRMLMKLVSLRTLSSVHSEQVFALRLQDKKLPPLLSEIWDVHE
Source text: as §1, §2, §3, §4, §5

[5] = HG5LN GAL4-LXRβ cells, tested alone, NE = No effect, read-out: LXRβ EC50
[6] = tested alone, constitutive activity = 100%, at 10^-5 M (10^-6 M *, 3 10^-6 M **), NE = No effect

Compound	EC50 [1]	EC50 [2]	IC50 ([3]; tested alone, NE = No effect)	EC50 [4, 5]	further results
CCOC(=O)c1ccc(CN(Cc2ccc(-c3cccc(S(C)(=O)=O)c3)cc2)S(=O)(=O)c2c(C)cc(C)cc2C)o1 [SR9238]	> 10 µM	> 10 µM	> 10 µM	–	remaining activity at 10 µM [3]: 77%
COC(=O)/C=C/c1cccc(N(Cc2ccc(-c3ccc(N(C)C)cc3)cc2)C(=O)C2CCCCC2)c1 [Feraxamine]	0.612 ± 0.188 µM	> 10 µM	> 10 µM	> 10 µM	FXR % max act ([1]; maximal luciferase activity at 10^-5 M (10^-6 M for * and 3 10^-6 M for ** compounds), 100% = 1 µM GW4064, DMSO 6 ± 1): 33%
CC(=O)Nc1nc(C)c(S(=O)(=O)Nc2ccc(C(O)(C(F)(F)F)C(F)(F)F)cc2)s1 [SR1001]	> 10 µM	> 10 µM	> 10 µM	> 10 µM	–
CC(C)c1onc(-c2c(Cl)cccc2Cl)c1COc1ccc(/C=C/c2cccc(C(=O)O)c2)c(Cl)c1 [GW4064]	–	> 10 µM	> 10 µM	> 10 µM	–
COc1cccc(Cn2cc(C(=O)Nc3ccc(C)c(S(=O)(=O)N4CCOCC4)c3)c(-c3ccc(C)cc3)n2)c1 [DY268]	–	> 10 µM	> 10 µM	> 10 µM	–
Fc1ccc(-c2c3cccc(C(F)(F)F)c3nn2Cc2ccc(F)cc2Cl)cc1 [WAY252623]	> 10 µM	> 10 µM	> 10 µM	–	EC50 [4]: 0.321 ± 0.071 µM; LXRβ % max act ([4]; NE = No effect): 72%
CCOC(=O)Nc1ccc2c(c1)N(C(=O)CN(CC)CC)c1ccccc1CC2 [CINPA1]	> 10 µM	> 10 µM	0.251 ± 0.015 µM	> 10 µM	CAR WT % min act [3, 6]: 19%
Cc1cc(C)c(S(=O)(=O)N(Cc2ccc(-c3cccc(S(C)(=O)=O)c3)cc2)Cc2ccc(C(F)(F)F)o2)c(C)c1 [GSK2033]	> 10 µM	> 10 µM	0.556 ± 0.024 µM	–	remaining activity at 10 µM [3]: 21%
CC(C)(C)c1nc(-c2cccc(NS(=O)(=O)c3c(F)cccc3F)c2F)c(-c2ccnc(N)n2)s1 [Dabrafenib]	> 10 µM	> 10 µM	> 10 µM	> 10 µM	–
O=C(Nc1ccc(C(O)(C(F)(F)F)C(F)(F)F)cc1)c1ccccc1Cl [SR0987]	> 10 µM	> 10 µM	> 10 µM	> 10 µM	–
Clc1ccccc1C(c1ccccc1)(c1ccccc1)n1ccnc1 [Clotrimazole, clotrimazole]	–	–	–	> 10 µM	Emax at 10 µM ([2]; HG5LN, read-out: CAR (APYLT) % max act): 23%; remaining activity at 10 µM [3, 6]: 64%
CCOP(=O)(OCC)C(=Cc1cc(C(C)(C)C)c(O)c(C(C)(C)C)c1)P(=O)(OCC)OCC [SR12813]	> 10 µM	> 10 µM	> 10 µM	> 10 µM	–
Cc1oc2ccccc2c1CNC(=O)NCc1cccs1 [S07662]	> 10 µM	> 10 µM	1.06 ± 0.063 µM	> 10 µM	CAR WT % min act [3, 6]: 21%
O=C(Nc1ccc(C(O)(C(F)(F)F)C(F)(F)F)cc1)c1ccc(C(F)(F)F)cc1 [SR1078]	> 10 µM	> 10 µM	> 10 µM	> 10 µM	–
O=C(O)Cc1cccc(OCCCN(Cc2cccc(C(F)(F)F)c2Cl)CC(c2ccccc2)c2ccccc2)c1 [GW3965]	–	> 10 µM	> 10 µM	0.015 ± 0.006 µM	LXRβ specificity (fold, over LXRα) ([4]; from EC50 values on LXRα and LXRβ): 12 fold; LXRβ % max act ([4]; NE = No effect): 100%
Clc1ccc(-c2nc3sccn3c2/C=N/OCc2ccc(Cl)c(Cl)c2)cc1 [CITCO]	> 10 µM	–	–	> 10 µM	–
SPA70	> 10 µM	> 10 µM	> 10 µM	> 10 µM	–
Cc1cc(C)c(S(=O)(=O)N(CCc2cccc(Br)c2)Cc2ccc(-c3cccc(S(C)(=O)=O)c3)cc2)c(C)c1 [SR9243]	> 10 µM	> 10 µM	8.75 ± 3.69 µM	–	remaining activity at 10 µM [3, 6]: 65%
